US12616203B2, “Use of 3-isoxazolidinones compounds as selective herbicides” (FMC Corporation, priority 2014, dated 2026)

What was measured:
[1] = system: Cheat; assay: Ex18 PRE 2,4-DC + clomazone, % control 28 DAT, Colby; type: in vivo, Bromus secalinus
Excerpt: Additional treatments included application of metazachlor (Butisan®, 43.1%) at 750 g ai/ha, napropamide (Devrinol DF®, 50%) at 1260 g ai/ha, and dimethachlor (Teridox®, 48%) at 1000 g ai/ha. […] Treatments were applied just after the seeding of annual bluegrass, cheat, wild oat, quackgrass, field violet, blackgrass, littleseed canarygrass, silky windgrass, yellow foxtail, and goosegrass. […] Flats were watered and fertilized routinely after treatment application. Each treatment was replicated three times.

[2] = system: weeds; assay: Ex16 PRE greenhouse; type: in vivo; conditions: weed and rate in the words
Excerpt: To determine PRE efficacy, five levels of 2,4 DC (36.7% CS) 0, 125, 170, 210, or 250 g ai/ha and five levels of pyroxasulfone (KIH485-85WG) 0, 50, 65, 80, or 95 g ai/ha were applied either alone or as tank-mix. Additional treatments consisted of premix of pyroxasulfone plus fluthiacet-methyl (Anthem™ 23.3%) at 169.9 g ai/ha, S-metolachlor (Dual II Magnum, 82.4%) at 1388 g, and tank-mix of mesotrione (Callisto, 40%) at 123 g plus S-metolachlor at 1252 g. […] Treatments were applied before the emergence of black nightshade, giant foxtail, green foxtail, yellow foxtail, large crabgrass, kochia, redroot pigweed, common ragweed, and barnyardgrass.
Flats were watered and fertilized routinely after treatment application. Each treatment was replicated three times.

[3] = system: weeds; sweet corn, yellow corn, and sorghum; assay: Ex31 PRE greenhouse; type: in vivo; conditions: weed and rate in the words
Excerpt: Flats were watered and fertilized routinely after treatment application.

[4] = system: weeds; Wheat and Barley; assay: Ex41 POST greenhouse; type: in vivo; conditions: rate in the words
Protocol: Treatments were applied to wheat and barley crops.
Nonionic surfactant was added at 0.5% v/v in all treatments. Treatments were applied to wheat (5.5″), barley (5″), wild oat (5.5″), common chickweed (2″), wild buckwheat (3″), and common lambsquarters (2″). All plant species were direct seeded into 3″ plastic pots using metro-mix as growth media and pots were watered well before application and watered 24 h after application. Plants were watered and fertilized routinely after treatment application. Each treatment was replicated four times.

[5] = system: jimsonweed; assay: Ex15 PRE 2,4-DC + S-metolachlor, % control 28 DAT, Colby; type: in vivo, Datura stramonium
Excerpt: The weeds tested in this study were redroot pigweed (Amaranthus retroflexus, AMARE), Jimsonweed (Datura stramonium, DATST), black nightshade (Solanum nigrum, SOLNI), large crabgrass (Digitaria sanguinalis, DIGSA), Pennsylvania smartweed (Polygonum pensylvanicum, POLPY), horseweed (Conyza canadensis, ERICA), wild buckwheat (Polygonum convolvulus, POLCO). The crop tested was Corn (var. Viking).
To determine PRE efficacy and corn injury, five rates of each 2,4 DC (36.7% CS) and S-metolachlor (Dual II Magnum®, 82.4%) were applied either alone or as tank-mix. 2,4 DC was applied at 0, 125, 170, 210, or 250 g ai/ha and S-metolachlor was applied at 0, 267, 534, 801, or 1070 g ai/ha. Additional treatments included application of premix of pyroxasulfone plus fluthiacet-methyl (Anthem™ 23.3%) at 169.9 g ai/ha and tank-mix of mesotrione (Callisto®, 40%) at 123 g plus S-metolachlor at 1252 g. Treatments were applied just after the planting of large crabgrass, Jimsonweed, black nightshade, redroot pigweed, Pennsylvania smartweed, horseweed, wild buckwheat, and corn.
Flats were watered and fertilized routinely after treatment application. Each treatment was replicated three times. […] Corn injury was rated for bleaching and stunting.

[6] = system: Wild mustard; assay: Ex13 PRE 2,4-DC + diflufenican, % control 28 DAT, Colby; type: in vivo, Sinapis arvensis
Excerpt: Pyroxasulfone (KIH-485, 85%) at 74.3 g ai/ha, pendimethalin (Prowl 3.3EC, 37.4%) at 1200 g ai/ha, or a premix of chlorsulfuron plus metsulfuron-methyl (Report Extra, 75%) at 15.8 g ai/ha were applied as commercial standards. […] Treatments were replicated 3 times and flats were watered after planting before the treatment and lightly watered after treatment application. Thereafter flats were watered and fertilized routinely.

[7] = system: sweet corn, yellow corn, and sorghum; conditions: PRE; crop and rate in the words
Excerpt: Treatments were also applied ot sweet corn, yellow corn, and sorghum.
Treatments were applied before the emergence of Jimsonweed, velvetleaf, hairy beggarticks, common cocklebur, barnyardgrass, sweet corn, yellow corn, and sorghum. Plant species were planted in fiber flats (6″×10″) containing Pennington soil and flats were watered well before application and watered lightly after application. Flats were watered and fertilized routinely after treatment application.

[8] = system: sedges; assay: Ex26 PRE greenhouse; type: in vivo; conditions: 28 DAT, weed and rate in the words
Excerpt: Treatments were applied at the time of planting to yellow nutsedge, purple nutsedge, and benghal dayflower. […] Flats were watered and fertilized routinely after treatment application.

[9] = system: Quackgrass; assay: Ex32 PRE 2,4-DC + pyroxasulfone + sulfentrazone, % control 28 DAT, Colby; type: in vivo, Elymus repens
Excerpt: Treatments were applied at the time of planting to Italian ryegrass, green foxtail, littleseed canarygrass, wild oat, quackgrass, dandelion, common chickweed, white clover, yellow nutsedge, redroot pigweed, field bindweed, canola, and wheat. […] Flats were watered and fertilized routinely after treatment application.

[10] = system: Velvetleaf; assay: Ex37 PRE 2,4-DC + atrazine, % control 28 DAT, Colby; type: in vivo, Abutilon theophrasti
Excerpt: S-metolachlor (DUAL II MAGNUM®, 82.4%) at 525 g ai/h plus atrazine at 560 g ai/h was included as a standard for comparison. […] Thereafter flats were watered and fertilized routinely.

[11] = system: weeds; assay: Ex22 PRE greenhouse; type: in vivo; conditions: 28 DAT, weed and rate in the words
Excerpt: 2,4 DC (36.7% CS) was applied PRE at 0, 125, 170, 210, or 250 g ai/ha alone or as a tank-mix with S-metolachlor (Dual II Magnum®, 82.4%) at 0, 267, 534, 801, or 1070 g ai/ha. Pyroxasulfone plus fluthiacet-methyl (Anthem™, 23.3%) applied at 169.9 g ai/ha, and the tank-mix of mesotrione (Callisto®, 40%) at 123 g plus S-metolachlor (Dual II Magnum®, 82.4%) at 1252 g were included as a standards for comparison.
Thereafter flats were watered and fertilized routinely. Each treatment was replicated three times.

[12] = system: weeds; canola, and wheat; assay: Ex39 PRE greenhouse; type: in vivo; conditions: weed and rate in the words
Excerpt: (§1) Thereafter flats were watered and fertilized routinely.

[13] = system: Wild buckwheat; assay: Ex34 PRE 2,4-DC + napropamide, % control, Colby; type: in vivo, Polygonum convolvulus; conditions: 28 DAT
Excerpt: as §1

CC1(C)CON(Cc2ccc(Cl)cc2Cl)C1=O [2,4-DC, 2-(2,4-dichlorophenyl)methyl-4,4-dimethyl-3-isoxazolidinone]
X ([1]; 2,4-DC alone 125 g ai/ha): 6% | X ([1]; 2,4-DC alone 170 g ai/ha): 11% | X ([1]; 2,4-DC alone 210 g ai/ha): 12% | X ([1]; 2,4-DC alone 250 g ai/ha): 25% | weed control in words [2]: alone controlled kochia at 210 g ai/ha, barnyardgrass and large crabgrass at 125 g, giant foxtail and green foxtail at 170 g | weed control in words [3]: alone did not control any weeds except barnyardgrass | weed control / crop safety in words [4]: Wheat was safe with 2,4-DC alone up to 170 g ai/ha, barley was not safe with any rate of 2,4-DC alone | X ([5]; 2,4-DC alone 125 g ai/ha): 37% | X ([5]; 2,4-DC alone 170 g ai/ha): 40% | X ([5]; 2,4-DC alone 210 g ai/ha): 48% | X ([5]; 2,4-DC alone 250 g ai/ha): 53% | X ([6]; 2,4-DC alone 125 g ai/ha): 10% | X ([6]; 2,4-DC alone 170 g ai/ha): 15% | X ([6]; 2,4-DC alone 210 g ai/ha): 26% | X ([6]; 2,4-DC alone 250 g ai/ha): 23% | crop safety in words [7]: alone was safe on sweet corn and sorghum at the lowest rate while safe on yellow corn at 50 or 100 g ai/ha | weed control in words [8]: alone did not provide control of sedges at any rate except benghal dayflower at 400 g | X ([9]; 2,4-DC alone 50 g ai/ha): 0% | X ([9]; 2,4-DC alone 100 g ai/ha): 7% | X ([9]; 2,4-DC alone 200 g ai/ha): 10% | X (% control, 2,4-DC alone) ([10]; PRE, 2,4-DC 50 g ai/ha): 18% | X (% control, 2,4-DC alone) ([10]; PRE, 2,4-DC 100 g ai/ha): 19% | X (% control, 2,4-DC alone) ([10]; PRE, 2,4-DC 200 g ai/ha): 90% | weed control in words [11]: applied alone controlled (≥85% injury) Johnsongrass at 210 g ai/ha, common lambsquarters at 250 g and goosegrass at all rates | weed control in words [12]: alone at ≥50 g ai/ha controlled (≥85%) Canada thistle, dandelion, or common chickweed | X ([13]; 2,4-DC alone 31 g ai/ha): 10% | X ([13]; 2,4-DC alone 63 g ai/ha): 8% | X ([13]; 2,4-DC alone 125 g ai/ha): 8% | X ([13]; 2,4-DC alone 250 g ai/ha): 23% | X ([13]; 2,4-DC alone 375 g ai/ha): 37%
